According to paper PMC12298423, “Characterization of Novel ACE-Inhibitory Peptides from Nemopilema nomurai Jellyfish Venom Hydrolysate: In Vitro and In Silico Approaches” (Marine Drugs, 2025):
Peptide text beside a SMILES is read from it.

Columns and labels:
[1] = system: pepsin, trypsin and chymotrypsin; assay: Resistance to simulated GI digestion assay; type: in vitro ADME; conditions: peptide 100 and 200 µM; pepsin 0.01% pH 2.0, 37 °C, 3 h, then trypsin and chymotrypsin each 0.01% pH 7.5, 3 h; read-out ACE-inhibitory activity; triplicate
Procedure: The stability of the synthesized peptides against gastrointestinal proteases was evaluated using a slightly modified method based on Dong et al. (2024). Peptide solutions at concentrations of 100 and 200 µM were sequentially subjected to enzymatic digestion. Initially, the peptides were incubated with pepsin (0.01%, pH 2.0) at 37 °C for 3 h. This was followed by a second digestion step with trypsin and chymotrypsin (each at 0.01%, pH 7.5) for an additional 3 h under the same temperature conditions. To terminate enzymatic activity, the reaction mixtures were boiled for 10 min. The samples were then centrifuged at 8000× g for 15 min, and the resulting supernatants were collected. The ACE-inhibitory activity of the digested peptide solutions was subsequently analyzed to assess their enzymatic stability.

[2] = biological target: T1, angiotensin-converting enzyme (ACE) (Homo sapiens, UniProt P12821); assay: ACE-inhibitory activity, ACE Kit-WST (Dojindo); type: biochemical; conditions: peptide 0.01-1000 µM, 37 °C 1 h, absorbance 450 nm, triplicate, read-out: IC50 (ACE inhibition)
T1 construct: purchased Dojindo Laboratories, Kumamoto, Japan
Procedure: The ACE-inhibitory activity of the peptides was evaluated in vitro using the Dojindo assay kit, following the same procedure as described in our previous study. […] Captopril was used as a positive control to validate the assay system. To assess the stability of the peptides under simulated gastrointestinal (GI) conditions, a two-step enzymatic hydrolysis was conducted. The ACE-inhibitory activity of the peptides was measured both before and after digestion (Figure 1B,C).
The ACE-inhibitory activity of the peptides was assessed using the ACE Kit-WST (Dojindo Laboratories, Kumamoto, Japan) following the manufacturer’s protocol. Both peptides were dissolved in distilled water, and serial dilutions were prepared at concentrations of 0.01, 0.10, 1, 10, 100, and 1000 µM. Captopril was used as the positive control. For the assay, 20 µL of each sample solution was added to the designated wells, including the sample, blank 1, and blank 2 wells. Subsequently, 20 µL of substrate buffer was added to all wells. […] Absorbance was measured at 450 nm using a microplate reader. ACE-inhibitory activity was calculated using the following equation:ACE inhibition (%) = (Ablank1 − Asample)/(Ablank1 − Ablank2) × 100 where Ablank1 is the absorbance of the control (without inhibitor), Ablank2 is the absorbance of the reagent alone, and Asample is the absorbance of the peptide-treated sample.

[3] = biological target: ACE (Homo sapiens, UniProt P12821); assay: Lineweaver–Burk plot and secondary plot (ACE inhibition kinetics); type: biochemical; conditions: secondary plot from Lineweaver–Burk plots; substrate HHL 0.625 to 20 mM
Procedure: The inhibition pattern of the peptides against ACE was analyzed using Lineweaver–Burk plots. ACE activity was measured at varying concentrations of each peptide (IGDEPRHQYL: 0, 5, and 10 µM; IVGRPLANG: 0, 20, and 40 µM) in the presence of different concentrations of the substrate hippuryl-histidyl-leucine (HHL), ranging from 0.625 to 20 mM. The Michaelis constant (Km) and maximum reaction velocity (Vmax) were calculated from the slope and y-intercept of the Lineweaver–Burk plots. Additionally, secondary plots were generated to determine the inhibition constant (Ki) values for each peptide based on the derived Km and Vmax values.

Chain of ACE (P12821 30-1306, species assumed): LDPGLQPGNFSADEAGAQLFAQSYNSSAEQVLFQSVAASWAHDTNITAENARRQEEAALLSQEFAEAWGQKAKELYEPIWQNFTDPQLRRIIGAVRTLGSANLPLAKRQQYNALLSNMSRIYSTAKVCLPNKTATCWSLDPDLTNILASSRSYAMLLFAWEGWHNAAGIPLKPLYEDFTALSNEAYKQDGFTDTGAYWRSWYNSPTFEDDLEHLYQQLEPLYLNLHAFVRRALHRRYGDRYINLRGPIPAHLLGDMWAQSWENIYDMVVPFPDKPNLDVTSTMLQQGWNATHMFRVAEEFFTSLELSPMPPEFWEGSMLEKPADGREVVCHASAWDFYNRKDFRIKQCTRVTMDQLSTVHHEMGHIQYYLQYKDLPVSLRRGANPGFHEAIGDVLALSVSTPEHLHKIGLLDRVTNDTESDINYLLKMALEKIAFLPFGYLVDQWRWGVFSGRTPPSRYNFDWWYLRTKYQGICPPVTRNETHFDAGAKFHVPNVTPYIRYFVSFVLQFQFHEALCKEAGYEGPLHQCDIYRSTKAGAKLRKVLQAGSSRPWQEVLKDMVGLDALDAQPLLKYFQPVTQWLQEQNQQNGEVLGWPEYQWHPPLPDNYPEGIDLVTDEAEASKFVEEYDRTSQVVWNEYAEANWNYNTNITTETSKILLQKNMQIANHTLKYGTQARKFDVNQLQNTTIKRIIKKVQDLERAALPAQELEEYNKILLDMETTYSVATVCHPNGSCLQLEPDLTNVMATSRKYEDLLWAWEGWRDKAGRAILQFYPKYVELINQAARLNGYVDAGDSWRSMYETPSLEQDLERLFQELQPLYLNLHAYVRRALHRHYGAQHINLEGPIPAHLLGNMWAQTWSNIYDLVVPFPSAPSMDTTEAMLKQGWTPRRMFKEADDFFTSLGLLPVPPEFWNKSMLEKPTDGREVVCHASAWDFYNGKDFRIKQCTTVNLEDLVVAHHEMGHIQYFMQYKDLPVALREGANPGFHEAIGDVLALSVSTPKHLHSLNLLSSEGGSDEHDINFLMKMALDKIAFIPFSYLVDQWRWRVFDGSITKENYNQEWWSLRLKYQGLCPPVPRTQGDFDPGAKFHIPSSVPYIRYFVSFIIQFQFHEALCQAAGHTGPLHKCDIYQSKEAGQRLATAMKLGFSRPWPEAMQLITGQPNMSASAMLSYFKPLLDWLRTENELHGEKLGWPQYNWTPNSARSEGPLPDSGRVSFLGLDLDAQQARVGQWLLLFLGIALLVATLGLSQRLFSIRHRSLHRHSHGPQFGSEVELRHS
T1 sequence (P12821 30-1306, species assumed): as above

In the case of `CC[C@H](C)[C@H](N)C(=O)NCC(=O)N[C@@H](CC(=O)O)C(=O)N[C@@H](CCC(=O)O)C(=O)N1CCC[C@H]1C(=O)N[C@@H](CCCNC(=N)N)C(=O)N[C@@H](Cc1c[nH]cn1)C(=O)N[C@@H](CCC(N)=O)C(=O)N[C@@H](Cc1ccc(O)cc1)C(=O)N[C@@H](CC(C)C)C(=O)O` [IGDEPRHQYL] (H-IGDEPRHQYL-OH), the “ACE-inhibitory activity before and after simulated GI digestion” value [1] is reported as “retained their ACE-inhibitory activity”, the IC50 [2] is reported as 5.68 µM and the Ki [3] is reported as 5.46 µM.
`CC[C@H](C)[C@H](N)C(=O)N[C@H](C(=O)NCC(=O)N[C@@H](CCCNC(=N)N)C(=O)N1CCC[C@H]1C(=O)N[C@@H](CC(C)C)C(=O)N[C@@H](C)C(=O)N[C@@H](CC(N)=O)C(=O)NCC(=O)O)C(C)C` [IVGRPLANG] (H-IVGRPLANG-OH) was tested, and the “ACE-inhibitory activity before and after simulated GI digestion” value [1] was “retained their ACE-inhibitory activity”, the IC50 [2] was 23.8 µM and the Ki [3] was 51.4 µM.
